Key:
Balb/c mice = assay: In Vivo Model for Leukocytosis; design: species or system mouse; settings: bled 1-1.5 h after administration
Description: In Vivo Model for Leukocytosis
Leukocytosis the increase in circulating white blood cells (leukocytes). This can be brought about by preventing leukocyte binding to integrin counter-receptor adhesion molecules expressed on high endothelial venules. This cell adhesion occurs between immunoglobulin superfamily molecules and integrins. Relevant examples of these paired interactions include Intracellular Adhesion Molecule-1 and AlphaL Beta2 integrin, Vascular Cell Adhesion Molecule-1 and α4β1 integrin, and Mucosal Addressin Cell Adhesion Molecule-1 and α4β7 integrin, respectively.
In this model, a compound that antagonizes these leukocyte-endothelial interactions will cause an increase in circulating leukocytes, defined as leukocytosis, as measured at 1-1.5 h post-administration. This leukocytosis is indicative that normal lymphocyte or leukocyte emigration from the peripheral circulation was prevented. Similar emigration of cells out of the circulation into inflamed tissues is responsible for the progression and maintainance of the inflammatory state. Leukocytosis is an indication that lymphocyte and leukocyte extravasation is prevented, and is predictive of general anti-inflammatory activity.
One week prior to being tested, 7-10 week old female Balb/c mice, n=8 per group, were bled and randomized according to leukocyte counts. One week later, the mice were adminstered test compound orally or subcutaneously and then bled 1-1.5 h after drug administration, approximately 1 h after the peak blood concentration of the compound has occurred. Whole blood, 250-350 microliters, was collected from each mouse into potassium-EDTA […] collection tubes (Becton-Dickenson) and mixed to prevent clotting.
Cell counts and differential counts on the whole blood preparation were performed using an Advia 120 Hematology System (Bayer Diagnostics). Cell counts as total leukocytes and as total lympohcytes were made and compared to counts made from mice dosed with vehicle only. Data were reported as percent of vehicle control for lymphocyte counts and total leukocyte counts.
Statistical analyses were performed using ANOVA with Dunnet's multiple comparison test.

α4β1 = target: T1, α4β1 (Homo sapiens, UniProt P05556+P13612); assay: Ramos Cell Adhesion Assay (α4β1 Mediated Adhesion/VCAM-1); format: cell-based; settings: Ramos cells adhering to recombinant hVCAM-1
T1 construct: Ramos cells, (50 μL at 2×10^6/mL) labeled with 5 μM Calcein AM; endogenous in cells; host or cells: Ramos cells
Protocol: Ramos Cell Adhesion Assay (α4β1 Mediated Adhesion/VCAM-1)
Immulon 96 well plates (Dynex) were coated with 100 μL recombinant hVCAM-1 at 4.0 μg/mL in 0.05 M NaCO3 buffer pH 9.0 overnight at 4° C. (R&D Systems). Plates were washed 2 times in PBS with 1% BSA and blocked for 1 h@room temperature in this buffer. PBS was removed and compounds to be tested (50 μL) were added at 2× concentration. Ramos cells, (50 μL at 2×10^6/mL) labeled with 5 μM Calcein AM (Molecular Probes) for 1 h at 37° C., were added to each well and allowed to adhere for 1 h at room temperature. Plates were washed 4 × in PBS+1% BSA and cells were lysed for 15 minutes in 100 μL of 1 M Tris pH 8.0 with 1% SDS. The plate was read at 485 nm excitation and 530 nm emission.

human α4β7 integrin = target: T2, human α4β7 integrin (Homo sapiens, UniProt P13612+P26010); assay: α4β7-K562 Cell Adhesion Assay (α4β7 Mediated Adhesion/MAdCAM-1); format: cell-based; settings: K562 cells expressing human α4β7 adhering to FLAG-hMAdCAM-1, 1 mM Mn2+
T2 construct: expressed in transfected cells; host or cells: K562 cells, stably transfected
T2 sequence (P13612 34-1032): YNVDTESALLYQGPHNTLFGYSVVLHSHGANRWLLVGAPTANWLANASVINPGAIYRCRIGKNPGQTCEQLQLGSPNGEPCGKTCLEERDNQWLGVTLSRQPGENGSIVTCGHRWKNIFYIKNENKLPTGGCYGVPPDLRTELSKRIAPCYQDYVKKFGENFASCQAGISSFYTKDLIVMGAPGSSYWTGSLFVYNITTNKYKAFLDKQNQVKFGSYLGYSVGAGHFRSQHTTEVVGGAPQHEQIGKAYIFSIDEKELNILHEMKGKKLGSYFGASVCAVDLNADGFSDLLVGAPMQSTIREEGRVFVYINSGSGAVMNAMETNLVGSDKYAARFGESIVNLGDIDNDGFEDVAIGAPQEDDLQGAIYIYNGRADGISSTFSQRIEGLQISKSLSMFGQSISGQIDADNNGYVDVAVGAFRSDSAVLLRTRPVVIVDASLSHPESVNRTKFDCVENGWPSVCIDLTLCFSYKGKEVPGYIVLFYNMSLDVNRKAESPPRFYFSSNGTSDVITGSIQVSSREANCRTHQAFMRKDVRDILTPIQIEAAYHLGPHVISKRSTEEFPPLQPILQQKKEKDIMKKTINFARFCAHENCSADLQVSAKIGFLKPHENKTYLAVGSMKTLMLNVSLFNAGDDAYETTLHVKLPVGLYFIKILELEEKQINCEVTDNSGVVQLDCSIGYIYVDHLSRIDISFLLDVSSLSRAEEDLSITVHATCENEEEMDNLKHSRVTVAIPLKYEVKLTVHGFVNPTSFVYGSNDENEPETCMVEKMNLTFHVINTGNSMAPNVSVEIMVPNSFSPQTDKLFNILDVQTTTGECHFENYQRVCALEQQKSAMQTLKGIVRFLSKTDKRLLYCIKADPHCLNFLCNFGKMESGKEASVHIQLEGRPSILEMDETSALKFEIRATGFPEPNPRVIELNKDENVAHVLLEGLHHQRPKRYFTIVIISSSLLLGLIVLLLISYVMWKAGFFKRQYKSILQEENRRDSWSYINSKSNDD
T2 sequence (P26010 20-798): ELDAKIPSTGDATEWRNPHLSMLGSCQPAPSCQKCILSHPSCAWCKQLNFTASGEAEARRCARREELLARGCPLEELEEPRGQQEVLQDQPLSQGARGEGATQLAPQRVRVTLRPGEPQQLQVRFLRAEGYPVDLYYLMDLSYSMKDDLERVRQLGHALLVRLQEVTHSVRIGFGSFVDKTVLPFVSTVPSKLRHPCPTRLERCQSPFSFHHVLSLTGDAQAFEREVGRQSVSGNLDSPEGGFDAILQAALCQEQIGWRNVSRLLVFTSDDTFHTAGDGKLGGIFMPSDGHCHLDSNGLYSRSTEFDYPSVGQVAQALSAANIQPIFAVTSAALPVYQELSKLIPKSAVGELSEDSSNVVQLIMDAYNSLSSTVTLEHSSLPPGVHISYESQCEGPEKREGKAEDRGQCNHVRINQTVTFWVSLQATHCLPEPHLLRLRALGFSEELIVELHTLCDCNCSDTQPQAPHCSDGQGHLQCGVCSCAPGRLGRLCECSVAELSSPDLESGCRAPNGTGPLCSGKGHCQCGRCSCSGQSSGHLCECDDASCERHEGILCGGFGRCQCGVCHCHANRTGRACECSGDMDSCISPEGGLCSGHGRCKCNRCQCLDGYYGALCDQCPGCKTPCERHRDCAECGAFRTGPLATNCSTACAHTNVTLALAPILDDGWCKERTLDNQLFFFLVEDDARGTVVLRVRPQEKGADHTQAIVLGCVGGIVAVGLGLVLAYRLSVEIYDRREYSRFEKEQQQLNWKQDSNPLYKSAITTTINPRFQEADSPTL
Protocol: α4β7-K562 Cell Adhesion Assay (α4β7 Mediated Adhesion/MAdCAM-1)
M2 anti-FLAG Antibody Coated 96-well plates (Sigma) were coated for 1 hour at 4° C. with 2-8 μL/well recombinant FLAG-hMAdCAM-1 contained in 100 μL of Dulbecco's PBS, pH 7.4, with 1% BSA and 1 mM Mn^2+ (PBS-BSA-Mn). Plates were washed once with PBS-BSA-Mn. Buffer was removed and compounds to be tested (50 μL) were added at 2× concentration. Stably transfected K562 cells expressing human α4β7 integrin, (50 μL at 2×10^6/mL) that had been labeled with 100 μg/mL carboxymethyl fluorescein diacetate succinimidyl ester (CFDA-SE; Molecular Probes) for 15 min at 37° C. were added to each well and allowed to adhere for 1 h at room temperature. Plates were washed 4× in PBS-BSA-Mn and then cells were lysed for 2 min by addtion of 100 μL of PBS without Ca^2+, Mg^2+ supplemented with 0.1 M NaOH. The plate was read on a 96-well fluorescent plate reader at 485 nm excitation and 530 nm emission.

T1 sequence (P05556 21-798, one chain of several): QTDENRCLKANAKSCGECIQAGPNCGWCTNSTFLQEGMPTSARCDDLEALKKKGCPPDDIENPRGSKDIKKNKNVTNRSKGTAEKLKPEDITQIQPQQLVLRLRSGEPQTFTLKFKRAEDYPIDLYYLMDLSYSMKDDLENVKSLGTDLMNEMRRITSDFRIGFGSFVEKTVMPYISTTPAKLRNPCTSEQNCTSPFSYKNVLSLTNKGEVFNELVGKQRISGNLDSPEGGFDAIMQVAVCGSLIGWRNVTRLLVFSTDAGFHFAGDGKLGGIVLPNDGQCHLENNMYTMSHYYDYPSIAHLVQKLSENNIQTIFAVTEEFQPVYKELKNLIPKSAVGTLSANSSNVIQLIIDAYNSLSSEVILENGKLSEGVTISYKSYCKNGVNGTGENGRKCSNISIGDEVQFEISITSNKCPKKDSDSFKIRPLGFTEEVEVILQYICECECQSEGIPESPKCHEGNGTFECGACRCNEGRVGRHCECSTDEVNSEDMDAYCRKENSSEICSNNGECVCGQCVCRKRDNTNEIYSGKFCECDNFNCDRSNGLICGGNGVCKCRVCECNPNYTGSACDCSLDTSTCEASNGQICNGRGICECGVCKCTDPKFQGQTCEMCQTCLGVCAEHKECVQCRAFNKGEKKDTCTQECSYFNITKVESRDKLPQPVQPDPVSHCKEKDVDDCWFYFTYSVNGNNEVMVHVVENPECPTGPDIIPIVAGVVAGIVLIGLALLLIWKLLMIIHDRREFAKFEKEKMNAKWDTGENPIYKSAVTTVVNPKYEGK

Row | SMILES | IC50 (α4β1) | IC50 (human α4β7 integrin) | other results
1 | COc1cnn(C)c(=O)c1-c1ccc(C[C@H](NC(=O)N[C@@H]2CS(=O)(=O)C[C@H]2O)C(=O)O)cc1 [Cpd 36] | > 5000 nM | 674 nM | –
2 | CCN(CCN(C)C)C(=O)N[C@@H](Cc1ccc(-c2c(OC)cnn(C)c2=O)cc1)C(=O)O [Cpd 37] | > 5000 nM | 297 nM | –
3 | COc1cnn(C)c(=O)c1-c1ccc(C[C@H](NC(=O)N2CCC[C@@H]2CNc2ccccc2)C(=O)O)cc1 [Cpd 38] | > 5000 nM | 967 nM | –
4 | COc1cnn(C)c(=O)c1-c1ccc(C[C@H](NC(=O)N2CCC[C@H]2CN2CCCC2)C(=O)O)cc1 [Cpd 39] | > 5000 nM | 871 nM | –
5 | COc1cnn(C)c(=O)c1-c1ccc(C[C@H](NC(=O)N(CC(C)C)c2ccccc2)C(=O)O)cc1 [Cpd 41] | > 5000 nM | 213 nM | –
6 | COc1cnn(C)c(=O)c1-c1ccc(C[C@H](NC(=O)N(c2ccccc2)C(C)C)C(=O)O)cc1 [Cpd 42] | > 5000 nM | 92 nM | –
7 | CCN(C(=O)N[C@@H](Cc1ccc(-c2c(OC)cnn(C)c2=O)cc1)C(=O)O)c1cc(O)ccc1C [Cpd 44] | > 5000 nM | 24 nM | –
8 | COc1cnn(C)c(=O)c1-c1ccc(C[C@H](NC(=O)N(Nc2ccccc2)c2ccccc2)C(=O)O)cc1 [Cpd 46] | > 5000 nM | 575 nM | –
9 | COc1cnn(C)c(=O)c1-c1ccc(C[C@H](NC(=O)N(c2ccccc2)c2ccccc2)C(=O)O)cc1 [Cpd 47] | > 5000 nM | 1450 nM | –
10 | COc1cnn(C)c(=O)c1-c1ccc(C[C@H](NC(=O)N(Cc2ccccc2)c2ccccc2)C(=O)O)cc1 [Cpd 48] | > 5000 nM | 67 nM | –
11 | COc1cnn(C)c(=O)c1-c1ccc(C[C@H](NC(=O)N(C)c2ccccc2OC(F)(F)F)C(=O)O)cc1 [Cpd 51] | > 5000 nM | 52 nM | –
12 | COc1cnn(C)c(=O)c1-c1ccc(C[C@H](NC(=O)N(C)c2ccccn2)C(=O)O)cc1 [Cpd 54] | > 5000 nM | 880 nM | –

More lines, main results first:

Row | IC50 (α4β1) | IC50 (human α4β7 integrin) | SMILES | other results
13 | 1750 nM | 17 nM | COc1cnn(C)c(=O)c1-c1ccc(C[C@H](NC(=O)N(C)CC(C)C)C(=O)O)cc1 [Cpd 13] | Lymphoycte Counts % of Vehicle Control (Balb/c mice; 3 mg/kg sc): 84.4 % of Vehicle Control; Total Leukocyte Count % of Vehicle Control (Balb/c mice; 3 mg/kg sc): 84.4 % of Vehicle Control; Lymphoycte Counts % of Vehicle Control (Balb/c mice; 10 mg/kg sc): 133.6 % of Vehicle Control; Total Leukocyte Count % of Vehicle Control (Balb/c mice; 10 mg/kg sc): 133.5 % of Vehicle Control; Lymphoycte Counts % of Vehicle Control (Balb/c mice; 30 mg/kg sc): 154.3 % of Vehicle Control; Total Leukocyte Count % of Vehicle Control (Balb/c mice; 30 mg/kg sc): 149.5 % of Vehicle Control
14 | > 5000 nM | 2900 nM | COc1cnn(C)c(=O)c1-c1ccc(C[C@H](NC(=O)N(C)CC(C)C)C(=O)OCCO)cc1 [Cpd 21, 2-(3-Isobutyl-3-methyl-ureido)-3-[4-(5-methoxy-2-methyl-3-oxo-2,3-dihydro-pyridazin-4-yl)-phenyl]-propionic acid 2-hydroxy-ethyl ester] | Lymphoycte Counts % of Vehicle Control (Balb/c mice; 3 mg/kg po): 148.1 % of Vehicle Control; Total Leukocyte Count % of Vehicle Control (Balb/c mice; 3 mg/kg po): 121.9 % of Vehicle Control; Lymphoycte Counts % of Vehicle Control (Balb/c mice; 10 mg/kg po): 156.8 % of Vehicle Control; Total Leukocyte Count % of Vehicle Control (Balb/c mice; 10 mg/kg po): 118.7 % of Vehicle Control; Lymphoycte Counts % of Vehicle Control (Balb/c mice; 30 mg/kg po): 189.6 % of Vehicle Control; Total Leukocyte Count % of Vehicle Control (Balb/c mice; 30 mg/kg po): 131.0 % of Vehicle Control
15 | > 5000 nM | 310 nM | COc1cnn(C)c(=O)c1-c1ccc(C[C@H](NC(=O)N(C(C)C)C2CCCCC2)C(=O)O)cc1 [Cpd 33] | –
16 | > 5000 nM | 1830 nM | COc1cnn(C)c(=O)c1-c1ccc(C[C@H](NC(=O)N(C)C2CCN(Cc3ccccc3)C2)C(=O)O)cc1 (stereo partly shown) [Cpd 35] | –
17 | 4170 nM | 37 nM | COc1cnn(C)c(=O)c1-c1ccc(C[C@H](NC(=O)N(C)c2ccccc2C(F)(F)F)C(=O)O)cc1 [Cpd 52] | –

From patent US20050209232A1, “Pyridazinone ureas as antagonists of alpha4 integrins” (priority 2004, published 2005)
